Assays:
humans and animals = details: even when applied directly to a subject's skin; cited from earlier work
bed bugs [1] = assay: Toxicity and durability of toxicity of undiluted DMSO on filter paper in arenas (Example 1A); format: in vivo
Description: 0.1 milliliters of Fisher Biotech Molecular Biology Grade 99.7% DMSO (CAS#67-68-5) was applied to each of five 3.5 cm diameter disks of Fisherbrand Qualitative P8 filter paper. […] The arenas were placed in an incubator set to maintain a temperature of 22° C.
At the end of 24 hours, timed from the initial placement of the bed bugs on the filter papers, all of the arenas were removed from the incubator and opened and the bed bugs were examined. […] The bed bugs in the control jar were all still alive.
Without removing the filter paper, the dead bed bugs in the 5 arenas were removed and replaced by the same number (10) of live bed bugs in each arena. The arenas were again placed in the incubator and re-examined 24 hours later. The replacement bed bugs in the 5 arenas were also all dead.
All of the bed bugs in the control jar were all still alive at the end of the last testing interval.

bed bugs [2] = assay: Contact toxicity to bed bugs, general findings in the description; format: in vivo
bed bugs [3] = assay: Repellency to bed bugs, general finding; format: in vivo; details: with or without additional insecticidal active ingredient, any DMSO concentration

Compound	toxicity in exposure to humans and animals (humans and animals)	bed bug mortality at end of 24 hours (bed bugs [1]; 0.1 mL 99.7% DMSO on 3.5 cm filter paper, 5 arenas, 10 bed bugs each, 22° C., first 24 hours)	mortality at end of each 24 hour interval, three more replications (bed bugs [1]; same filter paper, replications 3 to 5 at 24 hour intervals)	mortality of replacement bed bugs 24 hours later (bed bugs [1]; same filter paper, second 24 hour interval, 10 live bed bugs per arena)	toxicity to bed bugs upon contact (bed bugs [2]; DMSO alone, no insecticidal active ingredient or synergist)	repellency effects (bed bugs [3])	toxicity-enhancing characteristics (bed bugs [2]; as penetration enhancer in insecticidal formulations)
C[S+](C)[O-] [DMSO, dimethyl sulfoxide]	low toxicity	All of the bed bugs in all 5 of the jars containing DMSO treated filter paper were dead	all bed bugs found to be dead	also all dead	highly toxic to bed bugs upon contact	not accompanied by any repellency effects	–
CCCCCCCCCCCCN1CCCCCC1=O [laurocapram, reference compound]	–	–	–	–	–	–	exhibits toxicity-enhancing characteristics similar to DMSO
